Measured values published in US20210347727A1 (BLADE THERAPEUTICS, INC., priority 2017, published 2021).
pIC50: −log10 of the molar value.

Legend:
Human Calpain 2/NS1 = target: T1, Human Calpain 2/NS1 (Homo sapiens, UniProt P17655); experiment: Biochemical inhibition of calpain 2, continuous fluorescence (FRET substrate) assay; conditions: mean; read-out: Human Calpain 2/NS1 1C50 [sic] (nM)_MEAN
T1 sequence (P17655 1-700): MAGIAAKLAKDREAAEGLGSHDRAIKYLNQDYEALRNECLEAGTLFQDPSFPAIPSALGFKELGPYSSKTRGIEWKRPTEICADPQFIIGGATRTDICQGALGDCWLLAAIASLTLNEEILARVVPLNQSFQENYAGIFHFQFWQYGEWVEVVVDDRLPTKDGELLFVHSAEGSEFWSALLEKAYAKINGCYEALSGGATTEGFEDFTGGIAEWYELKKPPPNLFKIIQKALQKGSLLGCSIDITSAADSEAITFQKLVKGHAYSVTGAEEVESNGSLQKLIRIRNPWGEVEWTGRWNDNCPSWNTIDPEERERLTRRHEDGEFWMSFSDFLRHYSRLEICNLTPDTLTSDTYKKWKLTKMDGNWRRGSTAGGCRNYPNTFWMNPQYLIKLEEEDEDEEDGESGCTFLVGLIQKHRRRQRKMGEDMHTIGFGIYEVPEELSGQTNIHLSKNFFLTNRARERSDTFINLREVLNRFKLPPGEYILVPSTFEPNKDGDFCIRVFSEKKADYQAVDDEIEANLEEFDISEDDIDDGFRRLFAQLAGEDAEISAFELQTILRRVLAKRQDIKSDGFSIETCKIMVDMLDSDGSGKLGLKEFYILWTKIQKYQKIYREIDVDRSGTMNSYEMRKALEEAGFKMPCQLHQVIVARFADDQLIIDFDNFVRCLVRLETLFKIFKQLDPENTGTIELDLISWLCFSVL
T1 sequence (P04632 1-268 partner): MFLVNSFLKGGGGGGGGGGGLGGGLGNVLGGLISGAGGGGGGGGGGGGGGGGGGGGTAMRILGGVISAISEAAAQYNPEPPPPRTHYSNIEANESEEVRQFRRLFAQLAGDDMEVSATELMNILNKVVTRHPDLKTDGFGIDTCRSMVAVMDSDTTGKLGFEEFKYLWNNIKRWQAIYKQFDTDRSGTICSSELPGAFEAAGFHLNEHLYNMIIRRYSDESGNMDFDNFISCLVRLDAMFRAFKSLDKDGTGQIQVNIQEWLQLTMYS
Method: (§1) Calpain 1, 2, and 9 activity and inhibition thereof are assessed by means of a continuous fluorescence assay. The SensoLyte 520 Calpain substrate (Anaspec Inc) is optimized for detecting calpain activity. This substrate contains a novel internally quenched 5-FAM/QXL™ 520 FRET pair. Calpains 1, 2, and 9 cleave the FRET substrate into two separate fragments resulting in an increase of 5-FAM fluorescence that is proportional to calpain activity.
(§2) Assays are typically setup in black 384-well plates using automated liquid handling as follows. Calpain assay base buffer typically contains 50 mM Tris, pH 7.5, 100 mM NaCl and 1 mM DTT. Inhibitors are serially diluted in DMSO and used to setup 2× mixtures with calpains in the aforementioned buffer. After incubation at ambient temperature (25 C), the reaction is initiated by adding a 2× mix of the fluorescent peptide substrate and CaCl2 (required for in-situ calpain activation) in the same buffer. Reaction progress curve data are typically collected for 10 min using excitation/emission wavelengths of 490 nm/520 nm on SpectraMax i3x or the FLIPR-Tetra plate readers (Molecular Devices Inc). Reaction rates were calculated from progress curve slopes typically over 1-5 min. Dose response curves (rate vs. log inhibitor concentration) were typically fit to a 4-parameter logistic function to extract IC50 values.

[1] = system: calpain activity in SH-SY5Y cells (Spectrin); experiment: SH-SY5Y Spectrin cellular calpain inhibition; type: cell-based
[2] = system: calpain activity in SH-SY5Y cells; experiment: SH-SY5Y cellular calpain activity, Suc-LLVY-AMC fluorescence assay; type: cell-based; conditions: Suc-LLVY-AMC substrate
Method: Calpain activity in SH-SY5Y cells and inhibition thereof were assessed by means of a homogeneous, fluorescence assay that uses the cell-permeable and pro-fluorescent calpain substrate Suc-LLVY-AMC (Sigma-Aldrich Inc). Upon intracellular calpain cleavage of Suc-LLVY-AMC, fluorescent amino-methyl-coumarin (AMC) is released into the media resulting in a continuous increase in fluorescence signal that is proportional to intra-cellular calpain activity.
Assays were typically setup by seeding SH-SY5Y cells in black 384-well plates at 40 k/per well in RPMI-1640 containing 1% serum followed by 37 C overnight incubation. Next morning, cells were pre-incubated for 30 min with serially diluted compounds followed by addition of 100 uM of Suc-LLVY-AMC substrate. The continuous increase in AMC fluorescence is monitored using a FLIPR, Tetra plate reader (Molecular Devices Inc) and slopes measured to report calpain activity. Dose response curves (slopes vs. log inhibitor concentration) were typically fit to a 4-parameter logistic function to extract IC50 values.

Human Calpain 1/NS1 = target: T2, Human Calpain 1/NS1 (Homo sapiens, UniProt P07384); experiment: Biochemical inhibition of calpain 1, continuous fluorescence (FRET substrate) assay; conditions: mean; read-out: Human Calpain 1/NS1 IC50 (nM)_MEAN
T2 sequence (P07384 1-714): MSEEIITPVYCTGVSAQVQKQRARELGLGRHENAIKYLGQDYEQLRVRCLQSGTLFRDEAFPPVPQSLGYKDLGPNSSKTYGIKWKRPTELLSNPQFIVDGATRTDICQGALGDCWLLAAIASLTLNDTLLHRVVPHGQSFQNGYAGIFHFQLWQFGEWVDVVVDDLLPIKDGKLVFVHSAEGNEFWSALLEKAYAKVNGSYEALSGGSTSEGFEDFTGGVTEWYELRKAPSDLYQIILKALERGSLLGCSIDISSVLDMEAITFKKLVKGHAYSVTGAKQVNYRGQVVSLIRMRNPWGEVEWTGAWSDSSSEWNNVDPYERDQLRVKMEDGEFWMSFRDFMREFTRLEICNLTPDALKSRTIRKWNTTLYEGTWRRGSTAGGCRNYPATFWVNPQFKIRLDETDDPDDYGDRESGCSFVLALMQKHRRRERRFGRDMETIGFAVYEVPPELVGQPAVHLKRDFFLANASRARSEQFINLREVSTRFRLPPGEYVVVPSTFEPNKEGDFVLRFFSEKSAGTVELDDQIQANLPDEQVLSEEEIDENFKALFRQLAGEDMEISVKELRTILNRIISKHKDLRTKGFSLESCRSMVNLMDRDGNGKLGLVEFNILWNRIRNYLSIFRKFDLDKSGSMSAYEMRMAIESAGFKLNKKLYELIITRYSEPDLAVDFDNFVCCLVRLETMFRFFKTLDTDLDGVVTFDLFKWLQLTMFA
T2 sequence (P04632 1-268 partner): T1 sequence (P04632 1-268 partner)
Method: as §1, §2

Human Calpain 9/NS1 = target: T3, Human Calpain 9/NS1 (Homo sapiens, UniProt O14815); experiment: Biochemical inhibition of calpain 9, continuous fluorescence (FRET substrate) assay; conditions: mean; read-out: Human Calpain 9/NS1 IC50 (nM)_MEAN
T3 sequence (O14815 1-690): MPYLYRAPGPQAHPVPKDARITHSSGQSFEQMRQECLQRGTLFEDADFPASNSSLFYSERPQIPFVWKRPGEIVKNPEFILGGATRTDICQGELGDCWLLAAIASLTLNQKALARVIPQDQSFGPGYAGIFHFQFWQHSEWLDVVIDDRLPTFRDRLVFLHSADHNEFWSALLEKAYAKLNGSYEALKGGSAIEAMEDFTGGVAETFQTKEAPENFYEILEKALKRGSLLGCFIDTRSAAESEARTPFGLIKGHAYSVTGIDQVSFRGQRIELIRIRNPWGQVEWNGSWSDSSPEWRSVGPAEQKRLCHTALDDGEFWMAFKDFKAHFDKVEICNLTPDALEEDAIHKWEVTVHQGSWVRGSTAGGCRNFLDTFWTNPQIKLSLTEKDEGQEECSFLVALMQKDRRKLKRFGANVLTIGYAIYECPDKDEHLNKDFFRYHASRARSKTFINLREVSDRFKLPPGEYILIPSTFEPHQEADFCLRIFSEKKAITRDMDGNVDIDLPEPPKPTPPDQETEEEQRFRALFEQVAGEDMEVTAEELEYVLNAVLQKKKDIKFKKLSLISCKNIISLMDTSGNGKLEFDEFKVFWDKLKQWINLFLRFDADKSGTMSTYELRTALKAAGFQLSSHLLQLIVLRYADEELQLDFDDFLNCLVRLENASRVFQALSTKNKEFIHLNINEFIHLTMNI
T3 sequence (P04632 1-268 partner): T1 sequence (P04632 1-268 partner)
Method: as §1, §2

Compound	IC50 (Human Calpain 2/NS1)	pIC50 [1]	pIC50 [2]	IC50 (Human Calpain 1/NS1)	IC50 (Human Calpain 9/NS1)
NC(=O)C(=O)[C@H](Cc1ccccc1)NC(=O)c1cc(F)c(Cl)cc1Cl [Compound 33, (S)—N-(4-AMINO-3,4-DIOXO-1-PHENYLBUTAN-2-YL)-2,4-DICHLORO-5-FLUOROBENZAMIDE]	< 3000 nM	> 5.00	> 5.00	< 3000 nM	< 3000 nM
NC(=O)C(=O)[C@H](Cc1ccccc1)NC(=O)c1c(C(F)(F)F)ccc(Cl)c1F [Compound 32, (S)—N-(4-AMINO-3,4-DIOXO-1-PHENYLBUTAN-2-YL)-3-CHLORO-2-FLUORO-6-(TRIFLUOROMETHYL)BENZAMIDE]	< 3000 nM	> 5.00	> 5.00	< 3000 nM	< 3000 nM
O=CC(Cc1ccccc1)NC(=O)c1c(F)cccc1C(F)(F)F (stereo not shown) [Compound 39, 2-FLUORO-N-(1-OXO-3-PHENYLPROPAN-2-YL)-6-(TRIFLUOROMETHYL)BENZAMIDE]	< 3000 nM	< 4.60	4.60 to 5.00	< 3000 nM	< 3000 nM
O=CC(Cc1ccccc1)NC(=O)c1c(Cl)cccc1Cl (stereo not shown) [Compound 45, 2,6-DICHLORO-N-(1-OXO-3-PHENYLPROPAN-2-YL)BENZAMIDE]	< 3000 nM	4.60 to 5.00	> 5.00	< 3000 nM	< 3000 nM
NC(=O)C(=O)[C@H](Cc1ccccc1)NC(=O)c1cc(Cl)ccc1Cl [Compound 22, (S)—N-(4-AMINO-3,4-DIOXO-1-PHENYLBUTAN-2-YL)-2,5-DICHLOROBENZAMIDE]	< 3000 nM	4.60 to 5.00	> 5.00	< 3000 nM	< 3000 nM
NC(=O)C(=O)[C@H](Cc1ccccc1)NC(=O)c1c(Cl)cccc1Cl [Compound 1, (S)—N-(4-AMINO-3,4-DIOXO-1-PHENYLBUTAN-2-YL)-2,6-DICHLOROBENZAMIDE]	< 3000 nM	4.60 to 5.00	< 4.60	< 3000 nM	< 3000 nM
NC(=O)C(=O)[C@H](Cc1ccccc1)NC(=O)c1cc(Br)ccc1Cl [Compound 34, (S)—N-(4-AMINO-3,4-DIOXO-1-PHENYLBUTAN-2-YL)-5-BROMO-2-CHLOROBENZAMIDE]	< 3000 nM	> 5.00	> 5.00	< 3000 nM	< 3000 nM
NC(=O)C(=O)C(Cc1ccccc1)NC(=O)c1c(Cl)ccc2ccccc12 (stereo not shown) [Compound 13, N-(4-AMINO-3,4-DIOXO-1-PHENYLBUTAN-2-YL)-2-CHLORO-1-NAPHTHAMIDE]	< 3000 nM	4.60 to 5.00	4.60 to 5.00	< 3000 nM	< 3000 nM
COc1ccc(F)c(C(=O)N[C@@H](Cc2ccccc2)C(=O)C(N)=O)c1Cl [Compound 29, (S)—N-(4-AMINO-3,4-DIOXO-1-PHENYLBUTAN-2-YL)-2-CHLORO-6-FLUORO-3-METHOXYBENZAMIDE]	< 3000 nM	4.60 to 5.00	> 5.00	< 3000 nM	< 3000 nM
NC(=O)C(=O)C(Cc1ccccc1)NC(=O)c1ccc2c(c1)OCO2 (stereo not shown) [Compound 24, N-(4-AMINO-3,4-DIOXO-1-PHENYLBUTAN-2-YL)BENZO[d][1,3]DIOXOLE-5-CARBOXAMIDE]	< 3000 nM	< 4.60	–	3000 to 10000 nM	< 3000 nM
O=CC(Cc1ccccc1)NC(=O)c1cccc2c1oc1ccccc12 (stereo not shown) [Compound 46, N-(1-OXO-3-PHENYLPROPAN-2-YL)DIBENZO[b,a]FURAN-4-CARBOXAMIDE]	< 3000 nM	4.60 to 5.00	< 4.60	3000 to 10000 nM	3000 to 10000 nM
Cn1c2ccccc2c2c(C(=O)NC(Cc3ccccc3)C(=O)C(N)=O)cccc21 (stereo not shown) [Compound 11, N-(4-AMINO-3,4-DIOXO-1-PHENYLBUTAN-2-YL)-9-METHYL-9H-CARBAZOLE-4-CARBOXAMIDE]	< 3000 nM	4.60 to 5.00	> 5.00	< 3000 nM	< 3000 nM
O=CC(Cc1ccccc1)NC(=O)c1c(F)cccc1F (stereo not shown) [Compound 40, 2,6-DIFLUDRO-N-(1-OXO-3-PHENYLPROPAN-2-YL)BENZAMIDE]	< 3000 nM	4.60 to 5.00	< 4.60	< 3000 nM	< 3000 nM
Cn1c2ccccc2c2cccc(C(=O)NC(Cc3ccccc3)C(=O)C(N)=O)c21 (stereo not shown) [Compound 12]	< 3000 nM	< 4.60	> 5.00	< 3000 nM	< 3000 nM
NC(=O)C(=O)C(Cc1ccccc1)NC(=O)C1c2ccccc2Oc2ccccc21 (stereo not shown) [Compound 5, N-(4-AMINO-3,4-DIOXO-1-PHENYLBUTAN-2-YL)-9H-XANTHENE-9-CARBOXAMIDE]	< 3000 nM	< 4.60	–	< 3000 nM	< 3000 nM
